Data published in US12391647B2, “Benzamide compound and preparation method, use, and pharmaceutical composition thereof” (INSTITUTE OF MATERIA MEDICA, CHINESE ACADEMY OF MEDICAL …, priority 2018, dated 2025).

How the values were obtained:
[1] = system: human prostate cancer cell DU145; assay: MTT assay, survival rate of tumor cells (antiproliferative activity); format: cell-based; conditions: DU-145, 72 h, read-out: Antiproliferative activity against human prostate cancer cell DU145, IC50
Protocol: DU145 cells (human prostate cancer cells) in logarithmic growth phase were digested with 0.25% trypsin-EDTA to prepare single cell suspension, which was inoculated into 96-well plate overnight according to 1500 cells/well/100 μL, and fresh medium containing different concentrations of compounds to be tested and corresponding solvent control was added, and 100 μL (DMSO final concentration <0.1%) was added to each well, and the 96-well plate was further cultured at 37° C. for 72 h. 20 μL of freshly prepared PBS solution containing 5 mg/mL MTT was added to each well, and the 96-well plate was further cultured for 4 h. After the supernatant was discarded, 180 μL of DMSO was added to each well to dissolve the MTT formazan precipitate. After the 96-well plate was shaked and mixed by a micro oscillator, the optical density (OD) at the detection wavelength of 570 nm was measured. With DMSO-treated tumor cells as the control group, the inhibition rate on the growth of tumor cells of the compound to be tested was calculated from the following formula, and the IC50 was calculated according to the median-effect equation. Inhibition rate (%)=(average OD value of control group-average OD value of dosing group)/average OD value of control group×100%

STAT3 transcription = assay: STAT3 specific luciferase double reporter gene experiment in DU145 cells; format: cell-based, human; conditions: for STAT3 transcription inhibition activity: DU145, STAT3 specific luciferase double reporter; for IC50: Homo sapiens, DU-145, DU145 with high STAT3 expression, 24 h
Protocol: The luciferase plasmids STAT3-TA-Luc and pGMLR-TK were transiently co-transfected into DU145 cells by Lipofectamine 3000. After staying overnight, different concentrations of compounds to be tested were added and cultured for 24 hours. The supernatant was discarded, and the residue was washed twice with PBS, and then 20 μL of lysis solution was added to shake and lyse for 5 min. The supernatant was transferred to a 96-well Costar whiteplate, and 70 μL of Dual-Glo luciferase substrate solution was added, and the relative fluorescence intensity of firefly luciferase was detected, and then 70 μL of Stop-Glo substrate solution was added, and the relative fluorescence intensity of sea kidney luciferase was detected, the normalized value was obtained, and the inhibition rate and IC50 value were calculated.

p-STAT3 (Tyr705) = assay: Western blotting of p-STAT3 expression in DU145 cells; format: cell-based, human
Protocol: DU145 cells treated for 16 h with different concentrations of examples 12, 23, 33 and 34 and DU145 cells in control group were collected and washed twice with pre-cooled PBS. After appropriate amount of RIPA lysate (50 mM Tris-HCl, 1 mM EDTA, 1% Triton X-100, 150 mM NaCl, 0.1% SDS, 1 mM NaF, Na3VO4, protease inhibitor, pH 7.4) was added to lyse for 1 h on ice, the reaction mixture was centrifuged at 4° C., 12,000 rpm for 20 min, and then the supernatant was collected for protein quantification and boiled for denaturation. Equal amount of protein was taken for 10% SDS-PAGE electrophoresis. The specific antibodies of p-STAT3 (Tyr705) and STAT3 were used as primary antibody, which was incubated overnight at 4° C. The corresponding HRP-labeled secondary antibody was used, incubated at room temperature for 2 h, and washed. ECL chemiluminescence substrate reaction solution was added to develop in gel imaging system, and the image was saved. (3-actin was used as internal reference.

IC50 (STAT3 transcription)	Compound	IC50 [1]	STAT3 transcription inhibition activity (STAT3 transcription)	also measured
–	Cc1ccc(C(=O)NCc2cccnc2)cc1NS(=O)(=O)c1ccc(C(C)C)cc1 [Example 22, 3-((4-isopropylphenyl)sulfonamido)-4-methyl-N-(pyridin-3-ylmethyl)benzamide]	1000 ± 160 nM	–	–
–	Cc1ccc(S(=O)(=O)Nc2cc(Cl)cc(C(=O)NCc3cccnc3)c2)cc1 [Example 10, 3-chloro-5-((4-methylphenyl)sulfonamido)-N-(pyridin-3-ylmethyl)benzamide]	340 ± 10 nM	–	–
–	Cc1ccc(C(=O)NCc2cccnc2)cc1NS(=O)(=O)c1ccc2c(c1)CCC2 [Example 25, 3-((2,3-dihydro-1H-indene)-5-sulfonamido)-4-methyl-N-(pyridinylmethyl)benzamide]	900 ± 40 nM	–	–
10 ± 2.1 µM	COc1ccc(S(=O)(=O)Nc2cc(C(=O)NCc3cccnc3)ccc2C)cc1 [Example 13, 3-((4-methoxyphenyl)sulfonamido)-4-methyl-N-(pyridin-3-ylmethyl)benzamide]	180 ± 80 nM	obvious STAT3 transcription inhibition activity	–
–	Cc1ccc(S(=O)(=O)Nc2cc(C(=O)NCc3cccnc3)ccc2F)cc1 [Example 3, 4-fluoro-3-((4-methylphenyl)sulfonamido)-N-(pyridin-3-ylmethyl) benzamide]	790 ± 130 nM	–	–
–	COc1cccc(S(=O)(=O)Nc2cc(C(=O)NCc3cccnc3)ccc2C)c1 [Example 14, 3-((3-methoxyphenyl)sulfonamido)-4-methyl-N-(pyridin-3-ylmethyl)benzamide]	2500 ± 20 nM	–	–
–	Cc1ccc(C(=O)NCc2cccnc2)cc1NS(=O)(=O)c1ccc2c(c1)CCO2 [Example 27, 3-((2,3-dihydrobenzofuran)-5-sulfonamido)-4-methyl-N-(pyridin-3-ylmethyl)benzamide]	1200 ± 10 nM	–	–
8.2 ± 0.02 µM	Cc1ccc(S(=O)(=O)Nc2cc(C(=O)NCc3cccnc3)ccc2C)c(C)c1 [Example 17, 3-((2,4-dimethylphenyl)sulfonamido)-4-methyl-N-(pyridinylmethyl)benzamide]	500 ± 40 nM	–	–
–	CCOc1ccc(S(=O)(=O)Nc2cc(C(=O)NCc3cccnc3)ccc2C)cc1 [Example 15, 3-((4-ethoxyphenyl)sulfonamido)-4-methyl-N-(pyridin-3-ylmethyl)benzamide]	860 ± 60 nM	–	–
–	Cc1ccc(C(=O)NCc2cccnc2)cc1NS(=O)(=O)c1ccc(Cl)cc1 [Example 21, 3-((4-chlorophenyl)sulfonamido)-4-methyl-N-(pyridin-3-ylmethyl)benzamide]	930 ± 50 nM	–	–
6.2 ± 0.3 µM	Cc1ccc(S(=O)(=O)Nc2cc(F)cc(C(=O)NCc3cccnc3)c2)cc1 [Example 9, 3-fluoro-5-((4-methylphenyl)sulfonamido)-N-(pyridin-3-ylmethyl)benzamide]	900 ± 20 nM	obvious STAT3 transcription inhibition activity	–
17.5 ± 0.3 µM	Cc1ccc(S(=O)(=O)Nc2cc(C(=O)NCc3cccnc3)ccc2C)s1 [Example 30, 4-methyl-3-((5-methylthiophene)-2-sulfonamido)-N-(pyridin-3-ylmethyl)benzamide]	1200 ± 30 nM	obvious STAT3 transcription inhibition activity	–
–	COc1ccc(S(=O)(=O)Nc2cc(C(=O)NCc3cccnc3)ccc2C)cn1 [Example 32, 3-((6-methoxypyridine)-3-sulfonamido)-4-methyl-N-(pyridin-3-ylmethyl)benzamide]	400 ± 20 nM	–	–
15 ± 1.4 µM	Cc1ccc(C(=O)NCc2cccnc2)cc1NS(=O)(=O)c1ccc(F)cc1 [Example 20, 3-((4-fluorophenyl)sulfonamido)-4-methyl-N-(pyridin-3-ylmethyl)benzamide]	3470 ± 1220 nM	obvious STAT3 transcription inhibition activity	–
–	Cc1ccc(S(=O)(=O)Nc2ccc(C)c(C(=O)NCc3cccnc3)c2)cc1 [Example 11, 2-methyl-5-((4-methylphenyl)sulfonamido)-N-(pyridin-3-ylmethyl)benzamide]	2000 ± 30 nM	–	–
–	Cc1ccc(C(=O)NCc2cccnc2)cc1NS(=O)(=O)c1ccc2c(c1)OCO2 [Example 26, 3-(benzo[d][1,3]dioxole-5-sulfonamido)-4-methyl-N-(pyridin-3-ylmethyl)benzamide]	610 ± 140 nM	–	–
9.7 ± 1.3 µM	CCc1ccc(C(=O)NCc2cccnc2)cc1NS(=O)(=O)c1ccc(C)cc1 [Example 6, 4-ethyl-3-((4-methylphenyl)sulfonamido)-N-(pyridin-3-ylmethyl)benzamide]	860 ± 80 nM	obvious STAT3 transcription inhibition activity	–
–	Cc1ccc(S(=O)(=O)Nc2cc(C(=O)NCc3cccnc3)ccc2C)cc1C [Example 16, 3-((3,4-dimethylphenyl)sulfonamido)-4-methyl-N-(pyridin-3-ylmethyl)benzamide]	970 ± 30 nM	–	–
–	Cc1ccc(S(=O)(=O)Nc2cc(C(=O)NCc3cccnc3)ccc2Cl)cc1 [Example 4, 4-chloro-3-((4-methylphenyl)sulfonamido)-N-(pyridin-3-ylmethyl) benzamide]	800 ± 120 nM	–	–
–	Cc1ccc(C(=O)NCc2cccnc2)cc1NS(=O)(=O)c1ccc2ccccc2c1 [Example 29, 4-methyl-3-(naphthalene-2-sulfonamido)-N-(pyridin-3-ylmethyl)benzamide]	1000 ± 70 nM	–	–
–	Cc1ccc(S(=O)(=O)Nc2cccc(C(=O)NCc3cccnc3)c2)cc1 [Example 2, 3-((4-methylphenyl)sulfonamido)-N-(pyridin-3-ylmethyl)benzamide]	700 ± 150 nM	–	–
0.8 ± 0.27 µM	COc1ccc(CNC(=O)c2ccc(C)c(NS(=O)(=O)c3ccc(C)cc3)c2)cn1 [Example 34, N-((6-methoxypyridin-3-yl)methyl)-4-methyl-3-((4-methylphenyl)sulfonamido)benzamide]	6 ± 2 nM	obvious STAT3 transcription inhibition activity	inhibitory activity on STAT3 phosphorylation (p-STAT3 (Tyr705); DU145, 0.1 μM concentration): obvious inhibitory activity
–	Cc1ccc(S(=O)(=O)Nc2cc(C)cc(C(=O)NCc3cccnc3)c2)cc1 [Example 7, 3-methyl-5-((4-methylphenyl)sulfonamido)-N-(pyridin-3-ylmethyl)benzamide]	340 ± 10 nM	–	–
8 µM	Cc1ccc(S(=O)(=O)Nc2cc(C(=O)NCc3ccc(C(F)(F)F)nc3)ccc2C)cc1 [Example 35, 4-methyl-3-((4-methylphenyl)sulfonamido)-N-((6-(trifluoromethyl)pyridin-3-yl)methyl)benzamide]	200 ± 70 nM	obvious STAT3 transcription inhibition activity	–
–	Cc1ccc(C(=O)NCc2cccnc2)cc1NS(=O)(=O)c1ccc2c(c1)OCCO2 [Example 28, 3-((2,3-dihydrobenzo[b][1,4]dioxine)-6-sulfonamido)-4-methyl-N-(pyridin-3-ylmethyl)benzamide]	420 ± 10 nM	–	–
1 µM	Cc1ccc(C(=O)NCc2cccnc2)cc1NS(=O)(=O)c1ccc(C2CC2)cc1 [Example 23, 3-((4-cyclopropylphenyl)sulfonamido)-4-methyl-N-(pyridin-3-ylmethyl)benzamide]	50 ± 8 nM	obvious STAT3 transcription inhibition activity	inhibitory activity on STAT3 phosphorylation (p-STAT3 (Tyr705); DU145, 0.5 μM concentration): obvious inhibitory activity
